Literature values, collected in US20220304959A1, “TREATMENT OF LONG HAULERS SYNDROME WITH NICLOSAMIDE” (First Wave BioPharma, priority 2021, published 2022).

O=C(Nc1ccc([N+](=O)[O-])cc1Cl)c1cc(Cl)ccc1O [niclosamide, 5-chloro-N-(2-chloro-4-nitrophenyl)-2-hydroxybenzamide]
Overall safety profile (administered to millions of people, including children): very good safety profile | Less frequently reported AEs: rash, oral irritation, fever, rectal bleeding, weakness, bad taste in mouth, sweating, palpitation, constipation, alopecia, oedema of an arm, backache, irritability (human use, literature reports): < 1% | Other reported AEs: vomiting; abdominal discomfort possibly associated with anorexia, diarrhea, drowsiness, dizziness and headache (human use, literature reports): 1-4 % of patients
